{
  "source": "patent US11752116B2",
  "about": "“Method of viral inhibition” (priority 2013, dated 2023)",
  "key": {"DENV-2 [1]": {"tested_on": "DENV-2", "experiment": "Time-of-addition DENV-2 assay in Vero cells, intracellular viral RNA by qRT-PCR", "format": "cell-based", "conditions": "10 μM for 2 h, added prior to, during, or up to 24 h p.i.", "protocol": "To investigate whether 4-HPR can inhibit DENV-2 replication when added prior to infection or post infection (p.i.), 10 μM drug or DMSO (drug diluent) was added to Vero cells 2 h prior to infection, for 2 h during infection, 2 h p.i., or 24 h p.i. In each instance the drug was incubated with the cells for 2 h then removed. Infections were performed for 2 h (MOI of 1) followed by analysis of intracellular viral RNA by qRT-PCR 48 h p.i. Data shown are the mean+SD from one experiment, representative of three independent assays."}, "Vero cells": {"tested_on": "Vero cells", "experiment": "XTT cell viability assay in Vero cells", "format": "cell-based", "conditions": "24 h, up to 25 μM", "protocol": "To determine the effect of 4-HPR on cell viability, and to ensure that the reduced viral titres were not due to compound toxicity, XTT reagent was used to measure mitochondrial activity of drug treated cells. Briefly, Vero cells were incubated with 0, 1, 10 or 25 μM 4-HPR for 24 h. XTT reagent was added directly to cells and incubated for 6 h at 37° C. prior to spectrophotometric analysis. Data shown are the mean+SD of a single experiment performed in triplicate wells."}, "DENV-2 strain (S221)": {"tested_on": "DENV-2 strain (S221)", "experiment": "Lethal mouse infection model, AG129 mice infected with mouse adapted DENV-2 strain S221", "format": "in vivo", "conditions": "20 mg/kg orally", "text": "Mice have previously been used as an in vivo model for 4-HPR pharmacokinetics. To examine the effect of 4-HPR on DENV infection in vivo, a lethal mouse infection model, which uses a mouse adapted DENV-2 strain (S221), to infect Sv/129 mice deficient in type I and II interferon receptors (AG129) was used (Zellweger et al., 2010, Cell Host Microbe). Viral infection in this system is enhanced by intraperitoneal delivery of a sub-neutralizing concentration of 4G2 antibody 1 day prior to infection, resulting in peak viremia 3 days p.i. and death of infected mice by day 5. Here, mice were treated with 20 mg/kg of 4-HPR, administered orally at the time of infection, then once (QD) or twice (BID) daily for 5 consecutive days. Consistent with previous reports, infected, untreated mice all died by day 5 (FIG. 8B). Once daily treatment of mice with 4-HPR was sufficient to provide protection to 20% of mice, which recovered from the infectious challenge, whereas increasing the dose to 2 treatments daily, improved protection to 70% (7 of 10 mice recovered from the infectious challenge).\nData are the mean+SEM. Statistical analysis (Student's t test) was performed using Graph Pad Prism software (ns, not significant)."}, "DENV-2 [2]": {"tested_on": "DENV-2", "experiment": "Delayed addition in DENV-2 infected Huh-7 cells, viral titre by plaque assay", "format": "cell-based", "conditions": "7.5 μM added 12 h p.i., at 60 h p.i.", "protocol": "To gain further insight into the mode of action of 4-HPR, the human liver carcinoma cell line, Huh-7 cells were infected with DENV-2 (MOI of 1), followed by delayed addition of drug diluent DMSO (DENV only), 7.5 μM 4-HPR, 7.5 μM 4-MPR or 10 μM NITD008 (a previously described adenosine nucleoside inhibitor), 12 h post infection. Cells were lysed at the indicated times, RNA was extracted by Trizol and analysed by qPCR with fold change in expression of NS1 calculated relative to the untreated control (FIG. 5B). Concurrently, culture medium was collected and viral titres determined by plaque assay (FIG. 5C)."}, "DENV-1": {"tested_on": "DENV-1", "experiment": "ADE-mediated DENV-1 infection of THP-1 cells, plaque assay", "format": "cell-based", "conditions": "Dengue virus, DENV1, THP-1, 48 h, read-out: EC50, ADE-mediated DENV-1 infection", "text": "In a cell culture model of antibody-dependent enhanced (ADE) DENV infection, THP-1 human monocyte cells infected with DENV-1 in the presence of sub-neutralising levels of a humanized version of the 4G2 antibody, which is cross-reactive with flavivirus envelope proteins (Paradkar et al., 2010 Bio Sci Rep.), show increased virus production compared to cells infected with virus alone. This model mimics the ADE phenomenon thought to occur in patients infected with a second serotype of DENV, which is associated with more severe DENV disease.\nBriefly, humanized 4G2 antibody (0.05 μg/ml) was combined with DENV-1 (MOI of 10), and 4-HPR (concentrations as indicated in FIG. 7) in serum-free media, and incubated on ice for 1 h for the immune complex to form. Immune complex inoculums were added to THP-1 cells and incubated for 48 h. Supernatants were collected after 2 days and infectious virus production was quantified by plaque assay."}, "[3]": {"tested_on": "West Nile virus, Kunjin strain (WNVKUN)", "experiment": "West Nile virus (Kunjin strain) infection of Vero cells, plaque assay", "format": "cell-based", "conditions": "10 μM, 4 h incubation of Vero cells at the time of infection", "protocol": "FIG. 9C. Viral titre from a plaque assay conducted from Vero cells infected with West Nile virus (Kunjin strain; WNVKUN) after treatment with 10 μM 4-HPR for 4 h."}, "[4]": {"experiment": "Cytotoxicity analysis in PBMCs", "format": "cell-based", "conditions": "human"}, "DENV-2 [5]": {"tested_on": "DENV-2", "experiment": "DENV-2 infectivity assay in Vero cells, viral RNA copies in culture medium by RT-PCR", "format": "cell-based", "conditions": "MOI of 1", "protocol": "To test the specificity of 4-HPR and 4-oxo-4-HPR for anti-DENV activity Vero cells were infected with DENV-2 with a multiplicity of infection (MOI) of 1, in the presence of drug diluent (untreated) or the indicated compounds (10 μM in FIG. 3A, or 10 μM or 5 μM as indicated in FIG. 3B) for 2 h, followed by removal of the virus/drug inoculums, and addition of fresh 2% FCS maintenance medium. At 24 h post infection (p.i.) the culture medium was collected and the viral RNA extracted using QIAamp viral RNA mini kit (Qiagen). Absolute RNA copies present in each sample were determined by Taqman One Step RT-PCR (Applied Biosystems), as an estimate of virus titre by extrapolation from a standard curve generated from in vitro transcribed DENV RNA. Data shown are the mean+standard error of the mean (SEM) for 3 (FIG. 3A) or 2 (FIG. 3B) independent experiments. Statistical analysis (Student's ttest) was performed using GraphPad Prism software."}, "DENV-4": {"tested_on": "DENV-4", "experiment": "Cell-based flavivirus immunodetection assay in BHK-21 cells, DENV-4", "conditions": "Dengue virus, DENV4, BHK-21, 48 h, read-out: EC50, DENV-4 replication", "protocol": "(§1) To investigate this, BHK-21 cells were infected with DENV serotypes 1, 2, 3 or 4 (MOI of 0.3) for 1 h in the presence of 4-HPR or 4-MPR (concentrations as indicated in FIG. 6A). Virus inoculum was removed and fresh media containing the indicated compounds was added. Virus infection rates were determined 48 h p.i. using a cell-based flavivirus immunodetection assay. Briefly, cells were fixed and stained for DENV structural protein, E, followed by addition of Alexa Fluor 488 anti-mouse IgG. Viral antigen quantification was performed using Imagexpress. Data shown are representative of a single experiment"}, "DENV-3": {"tested_on": "DENV-3", "experiment": "Cell-based flavivirus immunodetection assay in BHK-21 cells, DENV-3", "conditions": "MOI of 0.3, 48 h p.i.", "protocol": "as §1"}},
  "data": [
    {"smiles": "CC1=C(/C=C/C(C)=C/C=C/C(C)=C/C(=O)Nc2ccc(O)cc2)C(C)(C)CCC1", "note": "[4-HPR, N-(4-hydroxyphenyl) retinamide]", "values": [
      {"measurement": "intracellular DENV-2 RNA copies 48 h p.i.", "setting": "DENV-2 [1]", "value": "substantial reduction"},
      {"measurement": "effect on cell viability (XTT)", "setting": "Vero cells", "value": "no effect on cell viability"},
      {"measurement": "average plasma viral titre lower than untreated group, 3 days p.i.", "setting": "DENV-2 strain (S221); BID treatment group", "value": 65, "unit": "%"},
      {"measurement": "average plasma viral titre 3 days p.i.", "setting": "DENV-2 strain (S221); QD treatment group", "value": "small reduction"},
      {"measurement": "protection (mice recovered from the infectious challenge)", "setting": "DENV-2 strain (S221); once daily (QD) for 5 days", "value": 20, "unit": "%"},
      {"measurement": "protection (mice recovered from the infectious challenge)", "setting": "DENV-2 strain (S221); twice daily (BID) for 5 days", "value": 70, "unit": "%"},
      {"measurement": "virus titre lower than untreated and 4-MPR-treated controls", "setting": "DENV-2 [2]", "value": 3, "unit": "logs"},
      {"measurement": "EC50", "setting": "DENV-1", "value": 850, "unit": "nM"},
      {"measurement": "reduction in infectious virus produced (WNVKUN)", "setting": "[3]", "value": 89, "unit": "%"},
      {"measurement": "CC50 at 48 h", "setting": "[4]", "value": "> 13000", "unit": "nM"},
      {"measurement": "reduction in viral RNA copies at 24 h p.i.", "setting": "DENV-2 [5]; 5 μM compound for 2 h during infection", "value": "~1", "unit": "log"},
      {"measurement": "reduction in viral RNA copies at 24 h p.i.", "setting": "DENV-2 [5]; 10 μM compound for 2 h during infection", "value": 2, "unit": "log"},
      {"measurement": "EC50", "setting": "DENV-4", "value": 840, "unit": "nM"},
      {"measurement": "EC50, DENV-3 replication", "setting": "DENV-3", "value": "low EC50"}
    ]}
  ]
}
